What was measured:
Assay in all cases: PathHunter β-arrestin GpcrMAX assay
Type in all cases: cell-based
[1] = molecular target: T1, CXCR1 (Homo sapiens, UniProt P25024)
T1 construct: purchased DiscoveRx (Eurofins) gpcrMAX PathHunter β-arrestin panel
Procedure: (§1) GpcrMAX panel biosensor assays were used to characterize taveuniamide F (4, 20 µM) (agonist and antagonist mode). The experiments were carried out by DiscoveRx Corporation (Fremont, CA, USA) as described before, using PathHunter β-arrestin enzyme fragment complementation (EFC) technology.

[2] = molecular target: T2, PTGER2 (Homo sapiens, UniProt P43116)
T2 construct: purchased DiscoveRx (Eurofins) gpcrMAX PathHunter β-arrestin panel
Procedure: as §1

[3] = molecular target: T3, CCR6 (Homo sapiens, UniProt P51684)
T3 construct: purchased DiscoveRx (Eurofins) gpcrMAX PathHunter β-arrestin panel
T3 sequence (P51684 whole entry): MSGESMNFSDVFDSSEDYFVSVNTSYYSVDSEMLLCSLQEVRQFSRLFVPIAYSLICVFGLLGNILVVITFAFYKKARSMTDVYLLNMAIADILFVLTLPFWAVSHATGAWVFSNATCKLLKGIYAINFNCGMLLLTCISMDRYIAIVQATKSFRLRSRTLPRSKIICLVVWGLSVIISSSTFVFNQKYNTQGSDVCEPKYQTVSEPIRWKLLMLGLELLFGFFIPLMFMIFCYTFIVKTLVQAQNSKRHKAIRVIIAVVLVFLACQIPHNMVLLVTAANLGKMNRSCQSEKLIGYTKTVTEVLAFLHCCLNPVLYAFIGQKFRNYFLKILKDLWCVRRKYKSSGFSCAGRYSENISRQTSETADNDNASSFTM
Procedure: as §1

[4] = molecular target: T4, ADORA3 (Homo sapiens, UniProt P0DMS8)
T4 construct: purchased DiscoveRx (Eurofins) gpcrMAX PathHunter β-arrestin panel
Procedure: as §1

[5] = molecular target: T5, NPY1R (Homo sapiens, UniProt P25929)
T5 construct: purchased DiscoveRx (Eurofins) gpcrMAX PathHunter β-arrestin panel
T5 sequence (P25929 whole entry): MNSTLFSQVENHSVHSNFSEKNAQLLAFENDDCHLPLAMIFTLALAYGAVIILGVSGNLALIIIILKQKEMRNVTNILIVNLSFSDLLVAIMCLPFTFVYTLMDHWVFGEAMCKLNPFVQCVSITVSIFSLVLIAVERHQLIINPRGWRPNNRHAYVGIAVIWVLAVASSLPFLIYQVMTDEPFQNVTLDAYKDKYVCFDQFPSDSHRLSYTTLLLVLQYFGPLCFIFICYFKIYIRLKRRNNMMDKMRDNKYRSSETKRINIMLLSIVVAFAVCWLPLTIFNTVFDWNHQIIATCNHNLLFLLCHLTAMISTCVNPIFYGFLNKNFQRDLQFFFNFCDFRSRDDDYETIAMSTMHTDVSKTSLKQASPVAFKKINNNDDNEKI
Procedure: as §1

[6] = molecular target: T6, CHRM5 (Homo sapiens, UniProt P08912)
T6 construct: purchased DiscoveRx (Eurofins) gpcrMAX PathHunter β-arrestin panel
Procedure: as §1

[7] = molecular target: T7, EDG4 (Homo sapiens, UniProt Q9HBW0)
T7 construct: purchased DiscoveRx (Eurofins) gpcrMAX PathHunter β-arrestin panel
Procedure: as §1

[8] = molecular target: T8, FPRL1 (Homo sapiens, UniProt P25090)
T8 construct: purchased DiscoveRx (Eurofins) gpcrMAX PathHunter β-arrestin panel
T8 sequence (P25090 whole entry): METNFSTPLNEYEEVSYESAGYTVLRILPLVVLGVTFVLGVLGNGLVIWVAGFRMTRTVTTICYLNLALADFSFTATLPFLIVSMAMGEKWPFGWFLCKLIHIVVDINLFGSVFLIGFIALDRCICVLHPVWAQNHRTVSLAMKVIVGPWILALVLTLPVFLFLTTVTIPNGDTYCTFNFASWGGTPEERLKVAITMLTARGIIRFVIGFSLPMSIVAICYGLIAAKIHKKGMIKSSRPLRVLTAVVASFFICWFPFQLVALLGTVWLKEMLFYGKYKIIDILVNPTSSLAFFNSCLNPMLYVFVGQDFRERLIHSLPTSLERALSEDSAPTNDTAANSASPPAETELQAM
Procedure: as §1

[9] = molecular target: CALCRL-RAMP1 (Homo sapiens, UniProt O60894+Q16602)
Procedure: as §1

[10] = molecular target: T9, CMKLR1 (Homo sapiens, UniProt Q99788)
T9 construct: purchased DiscoveRx (Eurofins) gpcrMAX PathHunter β-arrestin panel
Procedure: as §1

[11] = molecular target: T10, CX3CR1 (Homo sapiens, UniProt P49238)
T10 construct: purchased DiscoveRx (Eurofins) gpcrMAX PathHunter β-arrestin panel
T10 sequence (P49238 whole entry): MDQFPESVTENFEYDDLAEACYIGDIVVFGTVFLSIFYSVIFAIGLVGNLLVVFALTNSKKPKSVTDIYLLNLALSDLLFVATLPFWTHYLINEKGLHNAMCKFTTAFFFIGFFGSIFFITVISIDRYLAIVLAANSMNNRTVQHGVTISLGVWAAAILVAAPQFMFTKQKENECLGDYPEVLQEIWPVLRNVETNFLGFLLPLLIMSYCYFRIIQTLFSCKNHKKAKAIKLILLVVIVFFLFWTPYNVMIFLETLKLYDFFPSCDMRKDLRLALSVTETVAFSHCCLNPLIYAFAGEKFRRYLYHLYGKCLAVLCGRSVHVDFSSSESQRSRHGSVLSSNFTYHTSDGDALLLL
Procedure: as §1

[12] = molecular target: T11, VIPR2 (Homo sapiens, UniProt P41587)
T11 construct: purchased DiscoveRx (Eurofins) gpcrMAX PathHunter β-arrestin panel
Procedure: as §1

[13] = molecular target: T12, TBXA2R (Homo sapiens, UniProt P21731)
T12 construct: purchased DiscoveRx (Eurofins) gpcrMAX PathHunter β-arrestin panel
Procedure: as §1

[14] = molecular target: T13, PROKR2 (Homo sapiens, UniProt Q8NFJ6)
T13 construct: purchased DiscoveRx (Eurofins) gpcrMAX PathHunter β-arrestin panel
Procedure: as §1

[15] = molecular target: T14, HTR1A (Homo sapiens, UniProt P08908)
T14 construct: purchased DiscoveRx (Eurofins) gpcrMAX PathHunter β-arrestin panel
Procedure: as §1

[16] = molecular target: T15, CXCR7 (Homo sapiens, UniProt P25106)
T15 construct: purchased DiscoveRx (Eurofins) gpcrMAX PathHunter β-arrestin panel
Procedure: as §1

[17] = molecular target: T16, HRH4 (Homo sapiens, UniProt Q9H3N8)
T16 construct: purchased DiscoveRx (Eurofins) gpcrMAX PathHunter β-arrestin panel
Procedure: as §1

[18] = molecular target: T17, EDG6 (Homo sapiens, UniProt O95977)
T17 construct: purchased DiscoveRx (Eurofins) gpcrMAX PathHunter β-arrestin panel
Procedure: as §1

[19] = molecular target: T18, MC4R (Homo sapiens, UniProt P32245)
T18 construct: purchased DiscoveRx (Eurofins) gpcrMAX PathHunter β-arrestin panel
Procedure: as §1

[20] = molecular target: T19, NPY2R (Homo sapiens, UniProt P49146)
T19 construct: purchased DiscoveRx (Eurofins) gpcrMAX PathHunter β-arrestin panel
Procedure: as §1

[21] = molecular target: T20, SCTR (Homo sapiens, UniProt P47872)
T20 construct: purchased DiscoveRx (Eurofins) gpcrMAX PathHunter β-arrestin panel
Procedure: as §1

[22] = molecular target: T21, MRGPRX1 (Homo sapiens, UniProt Q96LB2)
T21 construct: purchased DiscoveRx (Eurofins) gpcrMAX PathHunter β-arrestin panel
Procedure: as §1

[23] = molecular target: T22, CCKBR (Homo sapiens, UniProt P32239)
T22 construct: purchased DiscoveRx (Eurofins) gpcrMAX PathHunter β-arrestin panel
Procedure: as §1

[24] = molecular target: T23, HTR1B (Homo sapiens, UniProt P28222)
T23 construct: purchased DiscoveRx (Eurofins) gpcrMAX PathHunter β-arrestin panel
Procedure: as §1

[25] = molecular target: T24, NMBR (Homo sapiens, UniProt P28336)
T24 construct: purchased DiscoveRx (Eurofins) gpcrMAX PathHunter β-arrestin panel
Procedure: as §1

[26] = molecular target: T25, PRLHR (Homo sapiens, UniProt P49683)
T25 construct: purchased DiscoveRx (Eurofins) gpcrMAX PathHunter β-arrestin panel
Procedure: as §1

[27] = molecular target: T26, GALR2 (Homo sapiens, UniProt O43603)
T26 construct: purchased DiscoveRx (Eurofins) gpcrMAX PathHunter β-arrestin panel
T26 sequence (O43603 whole entry): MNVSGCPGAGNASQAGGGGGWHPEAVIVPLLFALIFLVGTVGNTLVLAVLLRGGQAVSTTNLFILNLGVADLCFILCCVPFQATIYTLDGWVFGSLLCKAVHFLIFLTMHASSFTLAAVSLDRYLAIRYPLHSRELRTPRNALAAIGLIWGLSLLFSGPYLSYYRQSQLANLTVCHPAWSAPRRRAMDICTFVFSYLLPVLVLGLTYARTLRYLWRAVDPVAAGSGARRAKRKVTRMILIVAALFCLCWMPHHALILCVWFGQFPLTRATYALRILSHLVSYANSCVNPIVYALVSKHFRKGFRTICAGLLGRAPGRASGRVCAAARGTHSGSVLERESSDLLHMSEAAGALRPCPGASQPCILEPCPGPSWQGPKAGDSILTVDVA
Procedure: as §1

[28] = molecular target: T27, P2RY4 (Homo sapiens, UniProt P51582)
T27 construct: purchased DiscoveRx (Eurofins) gpcrMAX PathHunter β-arrestin panel
T27 sequence (P51582 whole entry): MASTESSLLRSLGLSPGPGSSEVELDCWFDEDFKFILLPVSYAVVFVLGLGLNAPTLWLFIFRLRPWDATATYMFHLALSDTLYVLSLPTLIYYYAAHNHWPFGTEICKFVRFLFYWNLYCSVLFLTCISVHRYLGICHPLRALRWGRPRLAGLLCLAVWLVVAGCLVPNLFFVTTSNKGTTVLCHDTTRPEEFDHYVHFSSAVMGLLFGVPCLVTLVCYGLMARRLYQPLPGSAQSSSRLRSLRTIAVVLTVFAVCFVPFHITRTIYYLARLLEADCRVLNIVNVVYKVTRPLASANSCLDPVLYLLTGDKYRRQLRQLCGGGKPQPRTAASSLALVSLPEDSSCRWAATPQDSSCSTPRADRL
Procedure: as §1

[29] = molecular target: T28, SSTR2 (Homo sapiens, UniProt P30874)
T28 construct: purchased DiscoveRx (Eurofins) gpcrMAX PathHunter β-arrestin panel
T28 sequence (P30874 whole entry): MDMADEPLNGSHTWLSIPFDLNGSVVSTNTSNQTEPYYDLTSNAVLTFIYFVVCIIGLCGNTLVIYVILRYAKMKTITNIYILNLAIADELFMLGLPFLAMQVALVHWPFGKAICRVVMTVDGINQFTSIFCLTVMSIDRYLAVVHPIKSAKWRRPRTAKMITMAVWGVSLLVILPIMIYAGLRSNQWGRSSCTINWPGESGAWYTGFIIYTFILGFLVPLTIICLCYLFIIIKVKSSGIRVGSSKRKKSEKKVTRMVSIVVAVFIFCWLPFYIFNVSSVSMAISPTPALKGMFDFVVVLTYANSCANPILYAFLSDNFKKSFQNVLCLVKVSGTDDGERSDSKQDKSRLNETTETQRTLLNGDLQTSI
Procedure: as §1

[30] = molecular target: T29, CXCR6 (Homo sapiens, UniProt O00574)
T29 construct: purchased DiscoveRx (Eurofins) gpcrMAX PathHunter β-arrestin panel
Procedure: as §1

[31] = molecular target: T30, GPR1 (Homo sapiens, UniProt P46091)
T30 construct: purchased DiscoveRx (Eurofins) gpcrMAX PathHunter β-arrestin panel
Procedure: as §1

[32] = molecular target: T31, F2RL3 (Homo sapiens, UniProt Q96RI0)
T31 construct: purchased DiscoveRx (Eurofins) gpcrMAX PathHunter β-arrestin panel
Procedure: as §1

[33] = molecular target: T32, DRD2L (Homo sapiens, UniProt P14416)
T32 construct: purchased DiscoveRx (Eurofins) gpcrMAX PathHunter β-arrestin panel
T32 sequence (P14416 whole entry): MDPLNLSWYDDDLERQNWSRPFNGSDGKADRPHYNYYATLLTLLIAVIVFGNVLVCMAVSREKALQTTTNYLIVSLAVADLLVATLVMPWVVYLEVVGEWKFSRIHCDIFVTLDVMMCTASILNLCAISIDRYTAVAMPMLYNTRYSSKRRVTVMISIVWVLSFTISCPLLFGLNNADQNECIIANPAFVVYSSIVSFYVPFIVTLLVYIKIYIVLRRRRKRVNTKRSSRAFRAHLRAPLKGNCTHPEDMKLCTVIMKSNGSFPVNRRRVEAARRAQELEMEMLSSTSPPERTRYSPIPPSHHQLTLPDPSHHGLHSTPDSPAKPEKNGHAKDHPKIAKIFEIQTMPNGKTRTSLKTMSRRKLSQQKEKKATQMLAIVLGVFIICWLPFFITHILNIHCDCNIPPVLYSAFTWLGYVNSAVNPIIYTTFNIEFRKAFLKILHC
Procedure: as §1

[34] = molecular target: T33, CCR7 (Homo sapiens, UniProt P32248)
T33 construct: purchased DiscoveRx (Eurofins) gpcrMAX PathHunter β-arrestin panel
Procedure: as §1

[35] = molecular target: T34, MLNR (Homo sapiens, UniProt O43193)
T34 construct: purchased DiscoveRx (Eurofins) gpcrMAX PathHunter β-arrestin panel
T34 sequence (O43193 whole entry): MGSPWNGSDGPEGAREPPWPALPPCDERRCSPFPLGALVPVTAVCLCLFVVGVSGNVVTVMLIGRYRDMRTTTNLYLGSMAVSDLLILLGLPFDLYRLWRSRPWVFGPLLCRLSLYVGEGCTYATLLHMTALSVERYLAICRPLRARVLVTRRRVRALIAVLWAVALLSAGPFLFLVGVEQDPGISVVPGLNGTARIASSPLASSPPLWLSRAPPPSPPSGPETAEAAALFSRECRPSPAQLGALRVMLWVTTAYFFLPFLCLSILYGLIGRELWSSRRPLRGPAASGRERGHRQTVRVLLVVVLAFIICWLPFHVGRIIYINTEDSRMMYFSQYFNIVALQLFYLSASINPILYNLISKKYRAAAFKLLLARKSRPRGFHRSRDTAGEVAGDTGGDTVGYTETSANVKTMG
Procedure: as §1

[36] = molecular target: T35, TSHR(L) (Homo sapiens, UniProt P16473)
T35 construct: purchased DiscoveRx (Eurofins) gpcrMAX PathHunter β-arrestin panel
Procedure: as §1

[37] = molecular target: AVPR2 (Homo sapiens, UniProt P30518)
Sequence of AVPR2 (P30518 whole entry): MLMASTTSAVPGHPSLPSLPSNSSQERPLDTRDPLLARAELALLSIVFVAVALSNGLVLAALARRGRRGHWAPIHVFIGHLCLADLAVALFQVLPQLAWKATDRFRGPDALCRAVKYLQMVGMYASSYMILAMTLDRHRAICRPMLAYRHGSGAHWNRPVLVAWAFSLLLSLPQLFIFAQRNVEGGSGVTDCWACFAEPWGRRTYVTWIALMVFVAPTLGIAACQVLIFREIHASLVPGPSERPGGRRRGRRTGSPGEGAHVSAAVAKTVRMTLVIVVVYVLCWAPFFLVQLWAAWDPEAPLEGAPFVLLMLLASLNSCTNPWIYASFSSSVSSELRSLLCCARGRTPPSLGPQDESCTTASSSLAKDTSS
Procedure: as §1

[38] = molecular target: T36, HRH3 (Homo sapiens, UniProt Q9Y5N1)
T36 construct: purchased DiscoveRx (Eurofins) gpcrMAX PathHunter β-arrestin panel
T36 sequence (Q9Y5N1 whole entry): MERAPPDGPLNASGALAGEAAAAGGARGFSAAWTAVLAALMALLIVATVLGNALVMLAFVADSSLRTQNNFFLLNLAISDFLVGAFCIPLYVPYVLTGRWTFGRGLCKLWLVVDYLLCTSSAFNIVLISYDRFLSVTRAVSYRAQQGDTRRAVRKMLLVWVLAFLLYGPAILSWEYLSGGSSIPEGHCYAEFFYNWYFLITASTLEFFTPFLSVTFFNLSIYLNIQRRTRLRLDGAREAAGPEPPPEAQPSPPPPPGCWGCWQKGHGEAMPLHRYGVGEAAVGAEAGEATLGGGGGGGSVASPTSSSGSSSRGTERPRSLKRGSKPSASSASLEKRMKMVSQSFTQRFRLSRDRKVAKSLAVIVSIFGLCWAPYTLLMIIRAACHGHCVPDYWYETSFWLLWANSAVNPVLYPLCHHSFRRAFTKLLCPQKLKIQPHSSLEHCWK
Procedure: as §1

[39] = molecular target: CALCRL-RAMP2 (Homo sapiens, UniProt O60895+Q16602)
Procedure: as §1

[40] = molecular target: T37, ADRA2B (Homo sapiens, UniProt P18089)
T37 construct: purchased DiscoveRx (Eurofins) gpcrMAX PathHunter β-arrestin panel
T37 sequence (P18089 whole entry): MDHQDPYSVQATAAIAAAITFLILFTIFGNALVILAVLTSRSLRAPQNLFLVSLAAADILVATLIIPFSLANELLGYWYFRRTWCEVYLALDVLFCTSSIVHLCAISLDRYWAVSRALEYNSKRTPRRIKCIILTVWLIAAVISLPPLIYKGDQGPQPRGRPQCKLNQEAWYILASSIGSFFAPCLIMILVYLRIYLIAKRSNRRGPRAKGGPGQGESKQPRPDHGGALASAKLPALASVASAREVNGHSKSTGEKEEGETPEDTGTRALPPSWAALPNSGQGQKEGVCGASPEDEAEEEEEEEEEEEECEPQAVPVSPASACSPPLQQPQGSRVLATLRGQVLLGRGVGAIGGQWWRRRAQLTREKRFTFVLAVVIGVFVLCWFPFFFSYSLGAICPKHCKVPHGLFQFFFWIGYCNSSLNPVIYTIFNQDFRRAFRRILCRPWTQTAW
Procedure: as §1

[41] = molecular target: T38, PTGER3 (Homo sapiens, UniProt P43115)
T38 construct: purchased DiscoveRx (Eurofins) gpcrMAX PathHunter β-arrestin panel
Procedure: as §1

[42] = molecular target: T39, UTR2 (Homo sapiens, UniProt Q9UKP6)
T39 construct: purchased DiscoveRx (Eurofins) gpcrMAX PathHunter β-arrestin panel
Procedure: as §1

[43] = molecular target: T40, DRD3 (Homo sapiens, UniProt P35462)
T40 construct: purchased DiscoveRx (Eurofins) gpcrMAX PathHunter β-arrestin panel
Procedure: as §1

CC(=O)N[C@@H](CCCC#C/C=C/Cl)CCCCCCC(Cl)Cl [Compound 4, taveuniamide F]
inhibition at 20 µM [1]: 15.3%
inhibition at 20 µM [2]: 4.4%
inhibition at 20 µM [3]: 58.2%
inhibition at 20 µM [4]: 1%
inhibition at 20 µM [5]: 3.4%
inhibition at 20 µM [6]: 31.6%
inhibition at 20 µM [7]: 56.3%
inhibition at 20 µM [8]: 2.5%
inhibition at 20 µM [9]: 31.2%
inhibition at 20 µM [10]: 21.4%
inhibition at 20 µM [11]: 35.6%
inhibition at 20 µM [12]: 4.6%
inhibition at 20 µM [13]: -4.4%
inhibition at 20 µM [14]: 30.5%
inhibition at 20 µM [15]: 15.2%
inhibition at 20 µM [16]: 3.6%
inhibition at 20 µM [17]: 38.1%
inhibition at 20 µM [18]: 19.6%
inhibition at 20 µM [19]: 49.1%
inhibition at 20 µM [20]: 0.5%
inhibition at 20 µM [21]: 16.9%
inhibition at 20 µM [22]: -21.3%
inhibition at 20 µM [23]: 10.2%
inhibition at 20 µM [24]: 33.9%
inhibition at 20 µM [25]: 39.7%
inhibition at 20 µM [26]: 46.6%
inhibition at 20 µM [27]: 23.1%
inhibition at 20 µM [28]: 68.8%
inhibition at 20 µM [29]: -0.1%
inhibition at 20 µM [30]: 33.1%
inhibition at 20 µM [31]: 18.7%
inhibition at 20 µM [32]: 59.2%
inhibition at 20 µM [33]: 3.8%
inhibition at 20 µM [34]: 8.2%
inhibition at 20 µM [35]: 53.1%
inhibition at 20 µM [36]: 7.6%
inhibition at 20 µM [37]: 14.4%
inhibition at 20 µM [38]: 5%
inhibition at 20 µM [39]: 13.6%
inhibition at 20 µM [40]: 10.7%
inhibition at 20 µM [41]: -13%
inhibition at 20 µM [42]: 17.7%
inhibition at 20 µM [43]: 9.6%
